Converted amounts (≈) assume the structure as drawn. Like-named read-outs stand apart in the source and are kept apart here.
How the values were obtained:
M. avium = settings: 18 strains, agar dilution; cited from earlier work
[1] = system: extracellular M. tuberculosis; settings: cited from earlier work
M. tuberculosis [2] = settings: 22 strains, agar dilution; cited from earlier work
M. tuberculosis [3] = settings: BACTEC, cited from earlier work; for MIC50 50% inhibition / MIC90 90% inhibition: thirty clinical isolates
[4] = system: M. tuberculosis in human macrophages; settings: intracellular, cited from earlier work
[5] = system: M. tuberculosis strain Erdman; settings: cited from earlier work; for reduction of bacterial load in lungs and spleens, comparison of drugs: 20 mg/kg, five times per week for four weeks
[6] = in vivo; cited from earlier work
[7] = Clinical trial 005, WBC, ANC and platelet counts in tuberculosis patients; type: in vivo, human; settings: INH daily
Experimental: (§1) Definite diagnosis and evaluation of treatment efficacy requires direct examination of sputum for the presence of M. tuberculosis. The extent of M. tuberculosis infection is determined by number of bacteria able to form colonies and is expressed as colony forming units. When the number of colony forming units (CFU) is high, the infection is unhindered. When the CFU decreases, the number of active M. tuberculosis bacteria decreases. The CFU, typically expressed as Log10, have therefore important diagnostic and treatment evaluative value.
The four tables 17-20 show hematology data which are separated according to Groups 1-4. The group treatment corresponds to those seen in Table 16. […] In particular, the ANC value is considered to be a very meaningful safety index as it directly relates to a patient's ability to fight infection.
(§2) The overall clinical studies and conditions were similar to those described in Example 1. Due to ethical considerations, there were no placebo (control) patients in this study. […] Both latest regimens were experimental and performed under IND permit from FDA.

M. tuberculosis [8] = assay: Clinical trial 005, change in Log10 CFU/mL of sputum of tuberculosis patients; type: in vivo, human; settings: INH 400 mg daily, N 6
Experimental: Dosages of isoniazid and rifampin were adjusted to body weight of patients. […] When the patient's body weight was greater than 45 kg, isoniazid was administered as 600 mg/dose.
as §1
Dosages of isoniazid and rifampin depended on the patient's weight and were as above. The number of patients in each study group are presented as the N value.
as §2

CO[C@H]1/C=C/O[C@@]2(C)Oc3c(C)c(O)c4c(O)c(c(/C=N/N5CCN(C)CC5)c(O)c4c3C2=O)NC(=O)/C(C)=C\C=C\[C@H](C)[C@H](O)[C@@H](C)[C@@H](O)[C@@H](C)[C@H](OC(C)=O)[C@@H]1C [Rifampin, rifampin, reference compound]
MIC90 (M. avium): 100 mg/L (≈ 122 µM)
MBC ([1]; strain Atencio): 0.25 mg/L (≈ 0.304 µM)
MIC ([1]; strain Atencio): 0.25 mg/L (≈ 0.304 µM)
MBC ([1]; strain Erdman): 0.5 mg/L (≈ 0.608 µM)
MIC ([1]; strain Erdman): 0.12 mg/L (≈ 0.146 µM)
MBC ([1]; strain H37Rv): 0.5 mg/L (≈ 0.608 µM)
MIC ([1]; strain H37Rv): 0.12 mg/L (≈ 0.146 µM)
MIC90 (M. tuberculosis [2]): 100 mg/L (≈ 122 µM)
MIC (M. tuberculosis [3]; reference strain Kurono): 0.063 mg/L (≈ 0.0766 µM)
MIC50 50% inhibition (M. tuberculosis [3]): 4.0 mg/L (≈ 4.86 µM)
MIC90 90% inhibition (M. tuberculosis [3]): >128.0 mg/L
MBC ([4]; strain Atencio): 0.5 mg/L (≈ 0.608 µM)
MIC ([4]; strain Atencio): 0.25 mg/L (≈ 0.304 µM)
MBC ([4]; strain Erdman): 0.5 mg/L (≈ 0.608 µM)
MIC ([4]; strain Erdman): 0.12 mg/L (≈ 0.146 µM)
MBC ([4]; strain H37Rv): 1.0 mg/L (≈ 1.22 µM)
MIC ([4]; strain H37Rv): 0.25 mg/L (≈ 0.304 µM)
reduction of bacterial load in lungs and spleens, comparison of drugs [5]: No significant differences

CO[C@H]1/C=C/O[C@@]2(C)Oc3c(C)c(O)c4c(c3C2=O)C2=NC3(CCN(CC(C)C)CC3)NC2=C(NC(=O)/C(C)=C\C=C\[C@H](C)[C@H](O)[C@@H](C)[C@@H](O)[C@@H](C)[C@H](OC(C)=O)[C@@H]1C)C4=O [Rifabutin, rifabutin, reference compound]
adverse reactions at high doses [6]: generalized arthralgia and uveitis occurred
incidence of neutropenia [6]: significantly greater than in patients treated with placebo
skin discoloration [6]: < 1%
MIC (M. tuberculosis [3]; reference strain H37Rv): 0.016 mg/L (≈ 0.0189 µM)
MIC (M. tuberculosis [3]; reference strain Kurono): 0.016 mg/L (≈ 0.0189 µM)
MIC50 50% inhibition (M. tuberculosis [3]): 0.063 mg/L (≈ 0.0744 µM)
MIC90 90% inhibition (M. tuberculosis [3]): 8.0 mg/L (≈ 9.44 µM)
reduction of bacterial load in lungs and spleens, comparison of drugs [5]: No significant differences

NNC(=O)c1ccncc1 [INH, isoniazid]
ANC Max ([7]; Day 4): 22.51 K/CU MM
ANC Mean (SD) ([7]; Day 4): 7.62 K/CU MM
ANC Med ([7]; Day 4): 5.47 K/CU MM
ANC Min ([7]; Day 4): 3.79 K/CU MM
Platelets Max ([7]; Day 4): 431.70 K/CU MM
Platelets Mean (SD) ([7]; Day 4): 309.38 K/CU MM
Platelets Med ([7]; Day 4): 305.56 K/CU MM
Platelets Min ([7]; Day 4): 153.70 K/CU MM
WBC Max ([7]; Day 4): 27.19 K/CU MM
WBC Mean (SD) ([7]; Day 4): 10.88 K/CU MM
WBC Med ([7]; Day 4): 8.81 K/CU MM
WBC Min ([7]; Day 4): 6.37 K/CU MM
ANC Max ([7]; Day 8): 9.32 K/CU MM
ANC Mean (SD) ([7]; Day 8): 5.96 K/CU MM
ANC Med ([7]; Day 8): 5.22 K/CU MM
ANC Min ([7]; Day 8): 3.34 K/CU MM
Platelets Max ([7]; Day 8): 396.20 K/CU MM
Platelets Mean (SD) ([7]; Day 8): 310.13 K/CU MM
Platelets Med ([7]; Day 8): 357.20 K/CU MM
Platelets Min ([7]; Day 8): 185.60 K/CU MM
WBC Max ([7]; Day 8): 12.06 K/CU MM
WBC Mean (SD) ([7]; Day 8): 9.08 K/CU MM
WBC Med ([7]; Day 8): 8.63 K/CU MM
WBC Min ([7]; Day 8): 6.21 K/CU MM
ANC Max ([7]; Day 11): 6.57 K/CU MM
ANC Mean (SD) ([7]; Day 11): 5.29 K/CU MM
ANC Med ([7]; Day 11): 5.06 K/CU MM
ANC Min ([7]; Day 11): 4.17 K/CU MM
Platelets Max ([7]; Day 11): 447.50 K/CU MM
Platelets Mean (SD) ([7]; Day 11): 336.10 K/CU MM
Platelets Med ([7]; Day 11): 354.20 K/CU MM
Platelets Min ([7]; Day 11): 208.10 K/CU MM
WBC Max ([7]; Day 11): 10.03 K/CU MM
WBC Mean (SD) ([7]; Day 11): 8.29 K/CU MM
WBC Med ([7]; Day 11): 8.10 K/CU MM
WBC Min ([7]; Day 11): 7.27 K/CU MM
ANC Max ([7]; Day 15): 8.84 K/CU MM
ANC Mean (SD) ([7]; Day 15): 5.95 K/CU MM
ANC Med ([7]; Day 15): 6.04 K/CU MM
ANC Min ([7]; Day 15): 3.51 K/CU MM
Platelets Max ([7]; Day 15): 412.70 K/CU MM
Platelets Mean (SD) ([7]; Day 15): 298.59 K/CU MM
Platelets Med ([7]; Day 15): 302.00 K/CU MM
Platelets Min ([7]; Day 15): 184.60 K/CU MM
WBC Max ([7]; Day 15): 12.40 K/CU MM
WBC Mean (SD) ([7]; Day 15): 9.23 K/CU MM
WBC Med ([7]; Day 15): 8.49 K/CU MM
WBC Min ([7]; Day 15): 6.82 K/CU MM
ANC Max ([7]; Day 28): 7.87 K/CU MM
ANC Mean (SD) ([7]; Day 28): 5.63 K/CU MM
ANC Med ([7]; Day 28): 4.60 K/CU MM
ANC Min ([7]; Day 28): 4.41 K/CU MM
Platelets Max ([7]; Day 28): 398.80 K/CU MM
Platelets Mean (SD) ([7]; Day 28): 297.27 K/CU MM
Platelets Med ([7]; Day 28): 266.00 K/CU MM
Platelets Min ([7]; Day 28): 197.00 K/CU MM
WBC Max ([7]; Day 28): 11.15 K/CU MM
WBC Mean (SD) ([7]; Day 28): 8.31 K/CU MM
WBC Med ([7]; Day 28): 7.06 K/CU MM
WBC Min ([7]; Day 28): 6.70 K/CU MM
ANC Max ([7]; Day 42): 7.2 K/CU MM
ANC Mean (SD) ([7]; Day 42): 6.96 K/CU MM
ANC Med ([7]; Day 42): 6.96 K/CU MM
ANC Min ([7]; Day 42): 6.72 K/CU MM
Platelets Max ([7]; Day 42): 345.00 K/CU MM
Platelets Mean (SD) ([7]; Day 42): 297.10 K/CU MM
Platelets Med ([7]; Day 42): 297.10 K/CU MM
Platelets Min ([7]; Day 42): 249.20 K/CU MM
WBC Max ([7]; Day 42): 9.23 K/CU MM
WBC Mean (SD) ([7]; Day 42): 7.98 K/CU MM
WBC Med ([7]; Day 42): 7.98 K/CU MM
WBC Min ([7]; Day 42): 6.73 K/CU MM
Change from Sputum Baseline to Day 15, Max (M. tuberculosis [8]): −0.92 Log10 CFU/mL
Change from Sputum Baseline to Day 15, Mean (SD) (M. tuberculosis [8]): −1.58 Log10 CFU/mL
Change from Sputum Baseline to Day 15, Med (M. tuberculosis [8]): −1.63 Log10 CFU/mL
Change from Sputum Baseline to Day 15, Min (M. tuberculosis [8]): −2.23 Log10 CFU/mL
cell counts in lungs compared to early controls ([5]; four weeks treatment): significantly reduced cell counts in lungs
cell counts in lungs compared to late controls ([5]; four weeks treatment): reduced cell counts in lungs
